From patent US6737383B1, “Herbicidal oxadiazolidines” (priority 1999, dated 2004)

Columns and labels:
[1] = system: bedstraw; test: Test B pre/postemergence bedstraw; assay type: in vivo, Galium aparine; details: Postemergence, Rate 500 g/ha; scale of 0 to 10 where 0 is no effect and 10 is complete control
Summary of the method: (§1)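 Test chemicals in a non-phytotoxic solvent mixture with surfactant were sprayed preemergence onto planted seeds and postemergence onto plants 2 to 18 cm tall (1- to 4-leaf stage). After twelve to sixteen days in a greenhouse, injury was visually rated against untreated controls from 0 (no effect) to 10 (complete control).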

[2] = system: blackgrass; test: Test B pre/postemergence blackgrass; assay type: in vivo, Alopecurus myosuroides
Summary of the method: as §1

[3] = system: surinam grass; test: Test B pre/postemergence surinam grass; assay type: in vivo, Brachiaria decumbens
Summary of the method: as §1

[4] = system: cocklebur; test: Test B pre/postemergence cocklebur; assay type: in vivo, Xanthium strumarium
Summary of the method: as §1

[5] = system: corn; test: Test B pre/postemergence corn; assay type: in vivo, Zea mays
Summary of the method: as §1

[6] = system: crabgrass; test: Test B pre/postemergence crabgrass; assay type: in vivo, Digitaria sanguinalis
Summary of the method: as §1

[7] = system: giant foxtail; test: Test B pre/postemergence giant foxtail; assay type: in vivo, Setaria faberii
Summary of the method: as §1

[8] = system: morningglory; test: Test B pre/postemergence morningglory; assay type: in vivo, Ipomoea hederacea
Summary of the method: as §1

[9] = system: pigweed; test: Test B pre/postemergence pigweed; assay type: in vivo, Amaranthus retroflexus
Summary of the method: as §1

[10] = system: rape; test: Test B pre/postemergence rape; assay type: in vivo, Brassica napus
Summary of the method: as §1

[11] = system: soybean; test: Test B pre/postemergence soybean; assay type: in vivo, Glycine max
Summary of the method: as §1

[12] = system: sugar beet; test: Test B pre/postemergence sugar beet; assay type: in vivo, Beta vulgaris
Summary of the method: as §1

[13] = system: velvetleaf; test: Test B pre/postemergence velvetleaf; assay type: in vivo, Abutilon theophrasti
Summary of the method: as §1

[14] = system: wheat; test: Test B pre/postemergence wheat; assay type: in vivo, Triticum aestivum
Summary of the method: as §1

[15] = system: wild oat; test: Test B pre/postemergence wild oat; assay type: in vivo, Avena fatua
Summary of the method: as §1

[16] = system: purple nutsedge; test: Test B pre/postemergence purple nutsedge; assay type: in vivo, Cyperus rotundus
Summary of the method: as §1

[17] = system: rice; test: Test B flood test rice; assay type: in vivo, Oryza sativa; details: flood test species
Summary of the method: (§2)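 Each value is a visual injury score relative to controls, with 10 meaning complete control and 0 no effect. Evaluation took place twelve to sixteen days after the 2-leaf-stage plants were treated and kept in the greenhouse.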

[18] = system: smallflower flatsedge; test: Test B flood test smallflower flatsedge; assay type: in vivo, Cyperus difformis; details: flood test species
Summary of the method: as §2

[19] = system: duck salad; test: Test B flood test duck salad; assay type: in vivo, Heteranthera limosa; details: flood test species
Summary of the method: as §2

[20] = system: bamyardgrass; test: Test B flood test barnyardgrass; assay type: in vivo, Echinochloa crus-galli; details: flood test species
Summary of the method: as §2

[21] = Postemergence, Rate 125 g/ha, scale 0 to 10, 0 is no effect, 10 is complete control
[22] = Postemergence, Rate 250 g/ha, scale 0 to 10, 0 is no effect, 10 is complete control
[23] = Postemergence, Rate 500 g/ha, scale of 0 to 10 where 0 is no effect and 10 is complete control
[24] = Preemergence, Rate 62 g/ha, scale 0 to 10 (0 no effect, 10 complete control)
[25] = Preemergence, Rate 125 g/ha, scale of 0 to 10 where 0 is no effect and 10 is complete control
[26] = Preemergence, Rate 250 g/ha, scale of 0 to 10 where 0 is no effect and 10 is complete control
[27] = Preemergence, Rate 500 g/ha, scale 0 to 10, 0 is no effect, 10 is complete control
[28] = Rate 62 g/ha, Postemergence, scale of 0 to 10 where 0 is no effect and 10 is complete control
[29] = Preemergence, Rate 250 g/ha, scale 0 to 10, 0 is no effect, 10 is complete control
[30] = Rate 62 g/ha, Pre-emergence, visual evaluation after twelve to sixteen days
[31] = Rate 125 g/ha, under heading Pre-emergence, visual evaluation after twelve to sixteen days
[32] = Rate 500 g/ha, Pre-emergence, scale 0 to 10 (0 no effect, 10 complete control)

## CC(C)Cn1c(=O)on(C(=O)N(c2ccccc2)C(C)C)c1=O [Compound 410]
[1]
  Bedstraw plant response rating: 7
[2]; [21]
  Plant response rating, Blackgrass: 8
[2]; [22]
  Plant response rating, Blackgrass: 9
[2]; [23]
  Blackgrass plant response rating: 9
[2]; [24]
  Plant response rating, Blackgrass: 3
[2]; [25]
  Plant response rating, Blackgrass: 8
[2]; [26]
  Blackgrass plant response rating: 8
[2]; [27]
  Blackgrass plant response rating: 10
[3]; [21]
  Plant response rating, B. signalgrass: 0
[3]; [22]
  Plant response rating, B. signalgrass: 5
[3]; [23]
  B. signalgrass plant response rating: 7
[3]; [24]
  Plant response rating, B. signalgrass: 1
[3]; [25]
  Plant response rating, B. signalgrass: 5
[3]; [26]
  B. signalgrass plant response rating: 7
[3]; Preemergence, Rate 500 g/ha, scale of 0 to 10 where 0 is no effect and 10 is complete control
  B. signalgrass plant response rating: 10
[3]; [28]
  B. signalgrass plant response rating: 0
[4]; [21]
  Plant response rating, Cocklebur: 0
[4]; [22]
  Plant response rating, Cocklebur: 0
[4]; [23]
  Cocklebur plant response rating: 1
[4]; [24]
  Plant response rating, Cocklebur: 0
[4]; [25]
  Plant response rating, Cocklebur: 0
[4]; [29]
  Cocklebur plant response rating: 0
[4]; [27]
  Cocklebur plant response rating: 0
[4]; [28]
  Cocklebur plant response rating: 0
[5]; [21]
  Plant response rating, Corn: 0
[5]; [22]
  Plant response rating, Corn: 0
[5]; [23]
  Corn plant response rating: 3
[5]; [24]
  Plant response rating, Corn: 0
[5]; [25]
  Plant response rating, Corn: 0
[5]; [29]
  Corn plant response rating: 4
[5]; [27]
  Corn plant response rating: 9
[5]; [28]
  Corn plant response rating: 0
[6]; [21]
  Plant response rating, Crabgrass: 4
[6]; [22]
  Plant response rating, Crabgrass: 8
[6]; [23]
  Crabgrass plant response rating: 10
[6]; [24]
  Plant response rating, Crabgrass: 7
[6]; [25]
  Plant response rating, Crabgrass: 9
[6]; [29]
  Crabgrass plant response rating: 10
[6]; [27]
  Crabgrass plant response rating: 10
[6]; [28]
  Crabgrass plant response rating: 4
[7]; [21]
  Plant response rating, Giant foxtail: 9
[7]; [22]
  Plant response rating, Giant foxtail: 9
[7]; [23]
  Giant foxtail plant response rating: 9
[7]; [24]
  Plant response rating, Giant foxtail: 9
[7]; [25]
  Plant response rating, Giant foxtail: 9
[7]; [29]
  Giant foxtail plant response rating: 10
[7]; [27]
  Giant foxtail plant response rating: 10
[7]; [28]
  Giant foxtail plant response rating: 8
[8]; [22]
  Plant response rating, Morningglory: 8
[8]; [23]
  Morningglory plant response rating: 8
[8]; [24]
  Plant response rating, Morningglory: 0
[8]; [25]
  Plant response rating, Morningglory: 0
[8]; [29]
  Morningglory plant response rating: 0
[8]; [27]
  Morningglory plant response rating: 0
[9]; [22]
  Plant response rating, Redroot pigweed: 0
[9]; [23]
  Redroot pigweed plant response rating: 2
[9]; [24]
  Plant response rating, Redroot pigweed: 0
[9]; [25]
  Plant response rating, Redroot pigweed: 0
[9]; [29]
  Redroot pigweed plant response rating: 2
[9]; [27]
  Redroot pigweed plant response rating: 8
[10]; [22]
  Plant response rating, Rape: 7
[10]; [23]
  Rape plant response rating: 7
[10]; [24]
  Plant response rating, Rape: 0
[10]; [25]
  Plant response rating, Rape: 0
[10]; [29]
  Rape plant response rating: 2
[10]; [27]
  Rape plant response rating: 8
[11]; [22]
  Plant response rating, Soybean: 5
[11]; [23]
  Soybean plant response rating: 6
[11]; [24]
  Plant response rating, Soybean: 0
[11]; [25]
  Plant response rating, Soybean: 0
[11]; [29]
  Soybean plant response rating: 0
[11]; [27]
  Soybean plant response rating: 3
[12]; [22]
  Plant response rating, Sugarbeets: 7
[12]; [23]
  Sugarbeets plant response rating: 8
[12]; [24]
  Plant response rating, Sugarbeets: 0
[12]; [25]
  Plant response rating, Sugarbeets: 0
[12]; [29]
  Sugarbeets plant response rating: 0
[12]; [27]
  Sugarbeets plant response rating: 0
[13]; [22]
  Plant response rating, Velvetleaf: 0
[13]; [23]
  Velvetleaf plant response rating: 0
[13]; [24]
  Plant response rating, Velvetleaf: 3
[13]; [25]
  Plant response rating, Velvetleaf: 4
[13]; [29]
  Velvetleaf plant response rating: 6
[13]; [27]
  Velvetleaf plant response rating: 8
[14]; [23]
  Wheat plant response rating: 4
[14]; [24]
  Plant response rating, Wheat: 0
[14]; [25]
  Plant response rating, Wheat: 3
[14]; [29]
  Wheat plant response rating: 7
[14]; [27]
  Wheat plant response rating: 8
[15]; [23]
  Wild oats plant response rating: 5
[15]; [24]
  Plant response rating, Wild oats: 3
[15]; [25]
  Plant response rating, Wild oats: 6
[15]; [29]
  Wild oats plant response rating: 7
[15]; [27]
  Wild oats plant response rating: 10
[16]; [22]
  Plant response rating, Nutsedge: 0
[16]; [23]
  Nutsedge plant response rating: 0
[16]; [24]
  Plant response rating, Nutsedge: 0
[16]; [25]
  Plant response rating, Nutsedge: 0
[16]; [29]
  Nutsedge plant response rating: 0
[17]; [30]
  Plant response rating, Rice (0 to 10 scale, 0 is no effect, 10 is complete control): 0
[17]; [31]
  Rice plant response rating (0 to 10 scale, 0 is no effect, 10 is complete control): 0
[17]; [32]
  Rice plant response rating: 5
[18]; [30]
  Plant response rating, S. Flatsedge (0 to 10 scale, 0 is no effect, 10 is complete control): 3
[18]; [31]
  S. Flatsedge plant response rating (0 to 10 scale, 0 is no effect, 10 is complete control): 3
[18]; [32]
  S. Flatsedge plant response rating: 9
[19]; [30]
  Plant response rating, Ducksalad (0 to 10 scale, 0 is no effect, 10 is complete control): 0
[19]; [31]
  Ducksalad plant response rating (0 to 10 scale, 0 is no effect, 10 is complete control): 0
[19]; [32]
  Ducksalad plant response rating: 2
[20]; [30]
  Plant response rating, Barnyardgrass (0 to 10 scale, 0 is no effect, 10 is complete control): 0
[20]; [31]
  Barnyardgrass plant response rating (0 to 10 scale, 0 is no effect, 10 is complete control): 4
[20]; [32]
  Barnyardgrass plant response rating: 9
